We go through nine compounds from ChEMBL document CHEMBL1697781, “Assessment of the health effects of chemicals in humans: II. Construction of an adverse effects database for QSAR modeling” (Curr Drug Discov Technol, 2004).

Conditions in all cases: human; call rule not given here
The subject of series [1] is Hepatotoxicity. Nature of the series: FDA HLAED, liver enzyme composite activity.
Series [2] has as its system Hepatotoxicity. Nature of the series: FDA HLAED, gamma-glutamyl transferase (GGT) increase.
In series [3] the test system is Hepatotoxicity. Nature of the series: FDA HLAED, alkaline phosphatase increase.
Series [4] relates to Hepatotoxicity. The series can be described thus: FDA HLAED, serum glutamic oxaloacetic transaminase (SGOT) increase.
The subject of series [5] is Hepatotoxicity. Nature of the series: FDA HLAED, serum glutamic pyruvic transaminase (SGPT) increase.
The test system of series [6] is Hepatotoxicity. The series can be described thus: FDA HLAED, lactate dehydrogenase (LDH) increase.
For GGT Increase - Index Value in this document: reference of the scale not given here.
For LDH Increase - Index Value in this document: reference of the scale not given here.

As to `COCCc1ccc(OCC(O)CNC(C)C)cc1` (configuration not stated) [METOPROLOL], in series [1], the “Composite Activity - Active” value is 0, the “Composite Activity - Marginal” value was found to be 0 and the “Composite Activity - Score” value is “Inactive”. Besides, in series [2], the “GGT Increase - Activity Score” value is recorded as “Inactive”, the “GGT Increase - Index Value” amounted to 0 and the “GGT Increase - Number of Reports” value is recorded as < 4. Moreover, in series [3], the “Alkaline Phosphatase Increase - Activity Score” value is listed as “Inactive”, the “Alkaline Phosphatase Increase - Index Value” worked out at 0.4 and the “Alkaline Phosphatase Increase - Number of Reports” value is recorded as “>= 4”. In addition, in series [4], the “SGOT Increase - Activity Score” value is recorded as “Inactive”, the “SGOT Increase - Index Value” came out at 0.5 and the “SGOT Increase - Number of Reports” value is listed as “>= 4”. In addition, in series [5], the “SGPT Increase - Activity Score” value is “Inactive”, the “SGPT Increase - Index Value” is 0.5 and the “SGPT Increase - Number of Reports” value is reported as “>= 4”. In series [6], the “LDH Increase - Activity Score” value is “Inactive”, the “LDH Increase - Index Value” amounted to 0.3 and the “LDH Increase - Number of Reports” value is on record as < 4.
For `Nc1ccn([C@@H]2O[C@H](CO)[C@@H](O)C2(F)F)c(=O)n1` [GEMCITABINE], in series [1], the “Composite Activity - Active” value turned out to be 0, the “Composite Activity - Marginal” value was determined as 0 and the “Composite Activity - Score” value was “Inactive”. In series [2], the “GGT Increase - Activity Score” value is reported as “Inactive”, the “GGT Increase - Index Value” is recorded as 1.4 and the “GGT Increase - Number of Reports” value is < 4. In series [3], the “Alkaline Phosphatase Increase - Activity Score” value is “Inactive”, the “Alkaline Phosphatase Increase - Index Value” amounted to 4.3 and the “Alkaline Phosphatase Increase - Number of Reports” value was < 4. In addition, in series [4], the “SGOT Increase - Activity Score” value is listed as “Inactive”, the “SGOT Increase - Index Value” is 1.4 and the “SGOT Increase - Number of Reports” value is on record as < 4. In series [5], the “SGPT Increase - Activity Score” value was “Inactive”, the “SGPT Increase - Index Value” is listed as 1.4 and the “SGPT Increase - Number of Reports” value was < 4. Further, in series [6], the “LDH Increase - Activity Score” value is “Inactive”, the “LDH Increase - Index Value” is on record as 1.4 and the “LDH Increase - Number of Reports” value is recorded as < 4.
With `C[C@]12CC[C@@H]3c4ccc(OC(=O)c5ccccc5)cc4CC[C@H]3[C@@H]1CC[C@@H]2O` [ESTRADIOL BENZOATE], in series [1], the “Composite Activity - Active” value amounted to 0, the “Composite Activity - Marginal” value is listed as 0 and the “Composite Activity - Score” value was “Inactive”. In addition, in series [2], the “GGT Increase - Activity Score” value is “Inactive”, the “GGT Increase - Index Value” is recorded as 0.3 and the “GGT Increase - Number of Reports” value is reported as < 4. In series [3], the “Alkaline Phosphatase Increase - Activity Score” value was “Inactive”, the “Alkaline Phosphatase Increase - Index Value” is 1.5 and the “Alkaline Phosphatase Increase - Number of Reports” value is reported as “>= 4”. For the same compound, in series [4], the “SGOT Increase - Activity Score” value is “Inactive”, the “SGOT Increase - Index Value” is 2.8 and the “SGOT Increase - Number of Reports” value is listed as “>= 4”. In series [5], the “SGPT Increase - Activity Score” value is “Inactive”, the “SGPT Increase - Index Value” worked out at 2.1 and the “SGPT Increase - Number of Reports” value is on record as “>= 4”. Besides, in series [6], the “LDH Increase - Activity Score” value is “Inactive”, the “LDH Increase - Index Value” is given as 1.2 and the “LDH Increase - Number of Reports” value is listed as “>= 4”.
As to `O=P1(NCCCl)OCCCN1CCCl` (configuration not stated) [IFOSFAMIDE], in series [1], the “Composite Activity - Active” value was found to be 1, the “Composite Activity - Marginal” value was 0 and the “Composite Activity - Score” value is recorded as “Inactive”. Also, in series [2], the “GGT Increase - Activity Score” value is recorded as “Inactive”, the “GGT Increase - Index Value” is recorded as 0 and the “GGT Increase - Number of Reports” value was < 4. Moreover, in series [3], the “Alkaline Phosphatase Increase - Activity Score” value is “Inactive”, the “Alkaline Phosphatase Increase - Index Value” was 5 and the “Alkaline Phosphatase Increase - Number of Reports” value is given as < 4. For the same compound, in series [4], the “SGOT Increase - Activity Score” value is reported as “Active”, the “SGOT Increase - Index Value” was determined as 17.5 and the “SGOT Increase - Number of Reports” value is recorded as “>= 4”. In series [5], the “SGPT Increase - Activity Score” value was “Inactive”, the “SGPT Increase - Index Value” came to 7.5 and the “SGPT Increase - Number of Reports” value was < 4. In series [6], the “LDH Increase - Activity Score” value is given as “Inactive”, the “LDH Increase - Index Value” was 7.5 and the “LDH Increase - Number of Reports” value is given as < 4.
Regarding `O=C1CN=C(c2ccccc2)c2cc(Cl)ccc2N1CC1CC1` [PRAZEPAM], in series [1], the “Composite Activity - Active” value is recorded as 0, the “Composite Activity - Marginal” value was 0 and the “Composite Activity - Score” value is on record as “Inactive”. In addition, in series [2], the “GGT Increase - Activity Score” value is on record as “Inactive”, the “GGT Increase - Index Value” is reported as 0 and the “GGT Increase - Number of Reports” value is < 4. Further, in series [3], the “Alkaline Phosphatase Increase - Activity Score” value was “Inactive”, the “Alkaline Phosphatase Increase - Index Value” is 0.3 and the “Alkaline Phosphatase Increase - Number of Reports” value was < 4. Also, in series [4], the “SGOT Increase - Activity Score” value is “Inactive”, the “SGOT Increase - Index Value” was 0.3 and the “SGOT Increase - Number of Reports” value is on record as < 4. For the same compound, in series [5], the “SGPT Increase - Activity Score” value was “Inactive”, the “SGPT Increase - Index Value” turned out to be 0.3 and the “SGPT Increase - Number of Reports” value is < 4. In series [6], the “LDH Increase - Activity Score” value is “Inactive”, the “LDH Increase - Index Value” turned out to be 0 and the “LDH Increase - Number of Reports” value is recorded as < 4.
Turning to `CO[C@@]1(NC(=O)CSCC#N)C(=O)N2C(C(=O)O)=C(CSc3nnnn3C)CS[C@@H]21` [CEFMETAZOLE], in series [1], the “Composite Activity - Active” value turned out to be 0, the “Composite Activity - Marginal” value turned out to be 0 and the “Composite Activity - Score” value was “Inactive”. For the same compound, in series [2], the “GGT Increase - Activity Score” value was “Inactive”, the “GGT Increase - Index Value” is reported as 0 and the “GGT Increase - Number of Reports” value is recorded as < 4. Also, in series [3], the “Alkaline Phosphatase Increase - Activity Score” value is listed as “Inactive”, the “Alkaline Phosphatase Increase - Index Value” worked out at 0.1 and the “Alkaline Phosphatase Increase - Number of Reports” value is listed as < 4. In series [4], the “SGOT Increase - Activity Score” value is “Inactive”, the “SGOT Increase - Index Value” was determined as 0 and the “SGOT Increase - Number of Reports” value is reported as < 4. Besides, in series [5], the “SGPT Increase - Activity Score” value is “Inactive”, the “SGPT Increase - Index Value” worked out at 0 and the “SGPT Increase - Number of Reports” value is listed as < 4. In addition, in series [6], the “LDH Increase - Activity Score” value is “Inactive”, the “LDH Increase - Index Value” worked out at 25.5 and the “LDH Increase - Number of Reports” value is given as < 4.
With `CCN1CCN(C(=O)N[C@@H](C(=O)N[C@@H]2C(=O)N3[C@@H]2SC(C)(C)[C@@H]3C(=O)O)c2ccccc2)C(=O)C1=O` [PIPERACILLIN], in series [1], the “Composite Activity - Active” value amounted to 0, the “Composite Activity - Marginal” value is given as 0 and the “Composite Activity - Score” value is recorded as “Inactive”. Also, in series [2], the “GGT Increase - Activity Score” value was “Inactive”, the “GGT Increase - Index Value” was 0 and the “GGT Increase - Number of Reports” value was < 4. Further, in series [3], the “Alkaline Phosphatase Increase - Activity Score” value is recorded as “Inactive”, the “Alkaline Phosphatase Increase - Index Value” worked out at 0.3 and the “Alkaline Phosphatase Increase - Number of Reports” value is recorded as < 4. In series [4], the “SGOT Increase - Activity Score” value was “Inactive”, the “SGOT Increase - Index Value” came out at 0.3 and the “SGOT Increase - Number of Reports” value was < 4. For the same compound, in series [5], the “SGPT Increase - Activity Score” value is “Inactive”, the “SGPT Increase - Index Value” was 0 and the “SGPT Increase - Number of Reports” value is on record as < 4. Also, in series [6], the “LDH Increase - Activity Score” value is recorded as “Inactive”, the “LDH Increase - Index Value” was 0 and the “LDH Increase - Number of Reports” value was < 4.
For the compound `CC[C@H](C)C(=O)O[C@H]1C[C@H](O)C=C2C=C[C@H](C)[C@H](CC[C@@H](O)C[C@@H](O)CC(=O)O)[C@H]21` [PRAVASTATIN], in series [1], the “Composite Activity - Active” value was found to be 4, the “Composite Activity - Marginal” value was 1 and the “Composite Activity - Score” value is reported as “Active”. In series [2], the “GGT Increase - Activity Score” value is recorded as “Active”, the “GGT Increase - Index Value” was 5.3 and the “GGT Increase - Number of Reports” value is “>= 4”. Moreover, in series [3], the “Alkaline Phosphatase Increase - Activity Score” value is listed as “Active”, the “Alkaline Phosphatase Increase - Index Value” is on record as 4.5 and the “Alkaline Phosphatase Increase - Number of Reports” value was “>= 4”. In series [4], the “SGOT Increase - Activity Score” value is on record as “Active”, the “SGOT Increase - Index Value” is listed as 6.2 and the “SGOT Increase - Number of Reports” value is recorded as “>= 4”. In series [5], the “SGPT Increase - Activity Score” value is “Active”, the “SGPT Increase - Index Value” is on record as 6.3 and the “SGPT Increase - Number of Reports” value was “>= 4”. For the same compound, in series [6], the “LDH Increase - Activity Score” value is on record as “Marginally Active”, the “LDH Increase - Index Value” was found to be 3.1 and the “LDH Increase - Number of Reports” value is “>= 4”.
On to `Nc1cc(N2CCCCC2)nc(N)[n+]1[O-]` [MINOXIDIL], for which, in series [1], the “Composite Activity - Active” value came out at 0, the “Composite Activity - Marginal” value came to 0 and the “Composite Activity - Score” value is reported as “Inactive”. In series [2], the “GGT Increase - Activity Score” value was “Inactive”, the “GGT Increase - Index Value” came out at 0.3 and the “GGT Increase - Number of Reports” value is on record as < 4. Also, in series [3], the “Alkaline Phosphatase Increase - Activity Score” value is “Inactive”, the “Alkaline Phosphatase Increase - Index Value” was found to be 0.7 and the “Alkaline Phosphatase Increase - Number of Reports” value was “>= 4”. For the same compound, in series [4], the “SGOT Increase - Activity Score” value is recorded as “Inactive”, the “SGOT Increase - Index Value” was determined as 0.9 and the “SGOT Increase - Number of Reports” value is “>= 4”. In addition, in series [5], the “SGPT Increase - Activity Score” value is listed as “Inactive”, the “SGPT Increase - Index Value” was determined as 1.1 and the “SGPT Increase - Number of Reports” value is “>= 4”. Further, in series [6], the “LDH Increase - Activity Score” value is reported as “Inactive”, the “LDH Increase - Index Value” came to 0 and the “LDH Increase - Number of Reports” value is given as < 4.
